Values belong to the molecule of their own block, whether it stands above or below them. No end group written: not given here. Me2 = dimethyl on the lysine side chain (dimethyllysine)
How the values were obtained:
[1] = target: T1, Pygo2 PHD finger (PHD–HD1 complex) (Homo sapiens, UniProt Q9BRQ0); experiment: HSQC NMR chemical shift perturbation; type: binding; design: PHD–HD1 complex; with B9L HD1 (BCL9L)
T1 sequence (Q9BRQ0 327-387): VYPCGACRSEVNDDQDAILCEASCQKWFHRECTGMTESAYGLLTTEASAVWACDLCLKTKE
T1 sequence (Q86UU0 235-263 partner): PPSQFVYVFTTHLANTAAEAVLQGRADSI

[2] = target: T1, Pygo2 PHD finger (PHD–HD1 complex); experiment: biochemical; design: PHD–HD1 complex; with B9L HD1 (BCL9L); 15N-HSQC NMR titration of 15N-labelled PHD-HD1; Kd from chemical shift perturbations
Excerpt: […]. […] Nevertheless, we asked whether CF16 could compete with a native histone H3 tail peptide for binding to the PHD–HD1 complex.

[3] = target: T1, Pygo2 PHD finger (PHD–HD1 complex); experiment: HSQC NMR titration, intermolecular NOEs, NMR competition with H3 peptide; type: binding; design: with B9L HD1 (BCL9L)
Excerpt: HSQC NMR titration, intermolecular NOEs, NMR competition with H3 peptide on Pygo2 PHD finger (PHD–HD1 complex) | estimated affinities of CF16 and CF18 for the K4me pocket appear to be lower

[4] = target: T1, Pygo2 PHD finger (PHD–HD1 complex); experiment: HSQC NMR titration, intermolecular NOEs; type: binding; design: with B9L HD1 (BCL9L)
[5] = target: T2, histone H3 tail pentapeptide ARTKme2Q (Homo sapiens); experiment: NMR HSQC titration
T2 chain: ARTK(Me2)Q

Molecule: CCn1c(NCCN2CCOCC2)nc2ccccc21 [CF17]
HSQC NMR chemical shift perturbation [1]: CF14, CF16, and CF17 produced altogether distinct CSP patterns

Kd [2]: 2.9 mM
Molecule: Nc1nc2cc3c(cc2s1)OCCO3 [CF7]

Molecule: CCn1c(N)nc2ccccc21 [CF16]
Kd [3]: ~7.3 mM

Molecule: CN(C)CCn1c(N)nc2ccccc21 [CF18]
Kd [4]: ~14.7 mM

Kd [5]: 0.528 mM
B1: Pygo2 PHD–B9L HD1 complex 327-387+235-263 (protein)
chain 1: AASAPPPPDKLEGGGGPAPPPAPPSTGRKQGKAGLQMKSPEKKRRKSNTQGPAYSHLTEFAPPPTPMVDHLVASNPFEDDFGAPKVGVAAPPFLGSPVPFGGFRVQGGMAGQVPPGYSTGGGGGPQPLRRQPPPFPPNPMGPAFNMPPQGPGYPPPGNMNFPSQPFNQPLGQNFSPPSGQMMPGPVGGFGPMISPTMGQPPRAELGPPSLSQRFAQPGAPFGPSPLQRPGQGLPSLPPNTSPFPGPDPGFPGPGGEDGGKPLNPPASTAFPQEPHSGSPAAAVNGNQPSFPPNSSGRGGGTPDANSLAPPGKAGGGSGPQPPPGLVYPCGACRSEVNDDQDAILCEASCQKWFHRECTGMTESAYGLLTTEASAVWACDLCLKTKEIQSVYIREGMGQLVAANDG
chain 2: MRILANKTRLPHPRRREAPGSPPLSPRGHCPPAPAKPMHPENKLTNHGKTGNGGAQSQHQNVNQGPTCNVGSKGVGAGNHGAKANQISPSNSSLKNPQAGVPPFSSLKGKVKRDRSVSVDSGEQREAGTPSLDSEAKEVAPRSKRRCVLERKQPYSGDEWCSGPDSEEDDKPIGATHNCNVADPAMAAPQLGPGQTTQLPLSESSVPGAPHGPPPGLRPDAPGGGGGGGGVPGKPPSQFVYVFTTHLANTAAEAVLQGRADSILAYHQQNVPRAKLDQAPKVPPTPEPLPLSTPSAGTPQSQPPPLPPPPPPAPGSAPPALPPEGPPEDSSQDLAPNSVGAASTGGGTGGTHPNTPTATTANNPLPPGGDPSSAPGPALLGEAAAPGNGQRSLVGSEGLSKEQLEHRERSLQTLRDIERLLLRSGETEPFLKGPPGGAGEGGPPAQAPPPPQQPPTAPPSGLKKYEEPLQSMISQTQSLGGPPLEHEVPGHPPGGDMGQQMNMMIQRLGQDSLTPEQVAWRKLQEEYYEEKRRKEEQIGLHGSRPLQDMMGMGGMMVRGPPPPYHSKPGDQWPPGMGAQLRGPMDVQDPMQLRGGPPFPGPRFPGNQIQRVPGFGGMQSMPMEVPMNAMQRPVRPGMGWTEDLPPMGGPSNFAQNTMPYPGGQGEAERFMTPRVREELLRHQLLEKRSMGMQRPLGMAGSGMGQSMEMERMMQAHRQMDPAMFPGQMAGGEGLAGTPMGMEFGGGRGLLSPPMGQSGLREVDPPMGPGNLNMNMNVNMNMNMNLNVQMTPQQQMLMSQKMRGPGDLMGPQGLSPEEMARVRAQNSSGVMGGPQKMLMPSQFPNQGQQGFSGGQGPYQAMSQDMGNTQDMFSPDQSSMPMSNVGTTRLSHMPLPPASNPPGTVHSAPNRGLGRRPSDLTISINQMGSPGMGHLKSPTLSQVHSPLVTSPSANLKSPQTPSQMVPLPSANPPGPLKSPQVLGSSLSVRSPTGSPSRLKSPSMAVPSPGWVASPKTAMPSPGVSQNKQPPLNMNSSTTLSNMEQGTLPPSGPRSSSSAPPANPPSGLMNPSLPFTSSPDPTPSQNPLSLMMTQMSKYAMPSSTPLYHNAIKTIATSDDELLPDRPLLPPPPPPQGSGPGISNSQPSQMHLNSAAAQSPMGMNLPGQQPLSHEPPPAMLPSPTPLGSNIPLHPNAQGTGGPPQNSMMMAPGGPDSLNAPCGPVPSSSQMMPFPPRLQQPHGAMAPTGGGGGGPGLQQHYPSGMALPPEDLPNQPPGPMPPQQHLMGKAMAGRMGDAYPPGVLPGVASVLNDPELSEVIRPTPTGIPEFDLSRIIPSEKPSSTLQYFPKSENQPPKAQPPNLHLMNLQNMMAEQTPSRPPNLPGQQGVQRGLNMSMCHPGQMSLLGRTGVPPQQGMVPHGLHQGVMSPPQGLMTQQNFMLMKQRGVGGEVYSQPPHMLSPQGSLMGPPPQQNLMVSHPLRQRSVSLDSQMGYLPAPGGMANLPF

From paper PMC4330097, “Competitive Binding of a Benzimidazole to the Histone-Binding Pocket of the Pygo PHD Finger” (ACS Chemical Biology, 2014)
